Experimental data: patent US20090197900A1, “METHODS OF TREATING HEART FAILURE AND RENAL DYSFUNCTION IN INDIVIDUALS WITH AN ADENOSINE A1 RECEPTOR ANTAGONIST” (priority 2007, published 2009)

System: subjects with acute CHF and renal impairment having BNP levels above 500 pg/mL
Experiment: Separate analysis of the Example 1 trial for subjects with BNP levels exceeding 500 pg/mL (BNP subgroup)
Assay type: in vivo, human
Conditions: 30 mg KW-3902, FIG. 14
Procedure: More than 300 subjects hospitalized due to acute CHF requiring intravenous diuretic therapy to treat fluid overload, and presenting with creatinine clearance values between 20 to 80 mL/min were identified. The subjects were randomized to receive either placebo, or 10 mg, 20 mg or 30 mg intravenous KW-3902 per day. The subjects' BNP levels, NT-Pro-BNP, serum creatinine, weight, and NYHA Class were measured.
On day 1, KW-3902 (or placebo) was co-administered with intravenous furosemide (LASIX™). The specified dose of KW-3902 (or placebo) was infused over a four hour time period. Subjects received therapy for up to three days. Serum creatinine, weight, dyspnea, and worsening heart failure were assessed daily by the investigator on days 1 through 14. Worsening heart failure was investigator determined and required an increase in dose or reinstitution of LASIX, mechanical respiratory or circulatory assist measures, administration of intravenous positive […], or administration of intravenous vasodilators.
To compare the therapeutic effect of KW-3902 on individuals with different levels of BNP and or NT-Pro-BNP, the results of the trial discussed in Example 1 were separately analyzed to distinguish subjects with BNP levels exceeding 500 pg/mL. Approximately 75% of the subjects described in Example 1 fell within the subgroup having BNP levels above 500 pg/mL. […]

## CCCn1c(=O)c2[nH]c(C34CC5CC(CC3C5)C4)nc2n(CCC)c1=O [KW-3902, 8-(3-noradamantyl)-1,3-dipropylxanthine]
  individuals characterized as modified "Success": greater than 65%
